“Also recorded” adds a separate entry of the source.

Assay [1] has as its system phospho-STAT1 (Y701). The experiment in a line: Immunoblot analysis after CT-VT-RT with signalling inhibitors. The following applies: inhibitor added to CT-VT-RT (BX795 10 µM, fludarabine 100 µM). It counts as cell-based, human. The protocol: Cells of interest were lysed in lysis buffer containing 25 mM Tris hydrochloric acid (Tris-HCI), 120 mM sodium chloride (NaCI), 5 mM ethylenediaminetetraacetic acid (EDTA), 0.5% NP-40 and phosphatase inhibitor cocktails (Sigma Aldrich). Proteins were separated on 4-12% polyacrylamide gels (Thermo Fisher Scientific) followed by transfer to PVDF membranes (Thermo Fisher Scientific). […] Antibody against TRAIL ([…]), LC3A ([…]) and β-tubulin (9F3) were purchased from Cell Signalling (Cell Signalling, Dan-vers, USA) and used at a dilution of 1:1,000. Anti-rabbit and Anti-mouse horseradish peroxidase coupled secondary antibodies were purchased from Abcam and used at a concentration of 1:5,000. TBK1/IKKε inhibitor, BX795 was purchased from Invivogen (Invivogen, San Diego, USA) and used at a concentration of 10 μM.

The test system of assay [2] is IFN-β. The experiment in a line: ELISA of supernatants of treated LNZ308 cells. The settings on record: LNZ308, CT-VT-RT with or without molecular inhibitors (BX795 10 µM, fludarabine 100 µM). It counts as cell-based, human. The protocol:
LNZ308 cells were seeded as 3×10^6 cells per dish and treated with different regimens as described above, supernatants were harvested after 96 hpt and concentrated using Amicon Ultra-15 Ultracel-3K centrifugal filters (Merck Millipore, Billerica, USA) with subsequent determination of total protein concentration using Bradford protein assay (Bio-Rad Laboratories). The respective chemokine/cytokine concentrations were determined enzymatically per microgram of total protein using the respective DuoSet ELISA kits according to manufacturer's instructions (R&D Systems, Minneapolis, USA).

In assay [3] the test system is STAT1. The experiment in a line: qPCR mRNA expression in treated LNZ308 cells. The class given is cell-based, human. The settings on record: inhibitor applied after CT-VT-RT treatment. The protocol: RNA extractions were performed using the RNeasy mini kit (Qiagen) and reversely transcribed to cDNA using High-Capacity RNA-to-cDNA kit (Thermo Fisher Scientific) according to manufacturer's instructions. For each qPCR reaction, 20 ng of cDNA were amplified with custom designed primers (Supplementary Table 1) and qPCR Mastermix Plus for SYBR Green (Eurogentec, Liege, Belgium) using the 7500 Fast Real time PCR system (Thermo Fisher Scientific). Relative gene expression was determined using the ΔΔ-CT method versus the housekeeping gene ARF1.

Assay [4] deals with LNZ308 cells. The experiment in a line: Acute cytotoxicity assay (cell viability, Cell titer blue). The following applies: Homo sapiens, DMSO control. It counts as cell-based. The method, then:
(§1) LN229 and LNZ308 were seeded as 5,000 cells per well in 96 well plates one day before treatment initiation. All treatments were carried out in serum-free DMEM along with their respective controls, and cell viability measured at 72 h post initial treatment (hpt) using Cell titer blue solution (Promega, Madison, USA) as per manufacturer's instructions. The measured values were converted to percentage cell viability by normalizing each treatment to its respective control within the individual regimen.
(§2) The monotherapies with γ-irradiation and MeV effected dose responses as expected (Fig. 9) and in accordance with cell viability observed previously (Fig. 4). The CT-VT-RT initiated synergistic effect was retained when substituting TMZ by lomustine/CCNU. […] The cell viability and dose dependence in the non-synergistic regimens were similar to those previously observed in triple regimens using TMZ (Fig. 5).

Assay [5] deals with LN229 cells. The description is as above. The following applies: Homo sapiens, LN-229, DMSO control. The class given is cell-based. The method, then:
as §1, §2

Assay [6] relates to GS8 cells. The description is as above. It counts as cell-based. The following applies: DMSO controls.
The target of assay [7] is T1, interferon regulatory factor 1 (IRF1) (UniProt P10914 1-325).
T1 sequence (looked up): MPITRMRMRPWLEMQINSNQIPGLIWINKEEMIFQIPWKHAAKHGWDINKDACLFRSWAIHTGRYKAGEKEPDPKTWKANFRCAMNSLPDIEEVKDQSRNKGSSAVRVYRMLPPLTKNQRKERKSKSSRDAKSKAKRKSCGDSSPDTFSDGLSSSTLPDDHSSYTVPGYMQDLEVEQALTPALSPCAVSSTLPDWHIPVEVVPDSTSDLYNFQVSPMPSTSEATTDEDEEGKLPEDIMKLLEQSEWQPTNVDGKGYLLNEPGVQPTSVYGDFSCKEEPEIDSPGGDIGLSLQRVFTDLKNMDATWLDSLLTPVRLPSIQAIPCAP
The experiment in a line: proximity ligation assay in LNZ308 cells treated with CT-VT-RT plus fludarabine.

Turning to `O=C(NCCCNc1nc(Nc2cccc(NC(=O)N3CCCC3)c2)ncc1I)c1cccs1` [BX795], the STAT1 protein phosphorylation entry in assay [1] is “downregulated; also recorded: complete loss of phospho-STAT1 (Y701)”. Moreover, the IFN-β protein entry in assay [2] is listed as “abolished; also recorded: complete loss of IFN-β production”. Also, in assay [3], the STAT1 transcription entry was “downregulated”. For `O=NN(CCCl)C(=O)NC1CCCCC1` [CCNU, lomustine], the values for the EC50 in assay [4] and in assay [5] were 45 µM and 16 µM, respectively. Molecule `Cn1nnc2c(C(N)=O)ncn2c1=O` [TMZ, temozolomide] showed an EC50 in assay [6] of 250 µM.

B1: basic leucine zipper transcriptional factor ATF2-like protein (BATF2) (other, UniProt Q8N1L9 1-274, looked up)
chain: MHLCGGNGLLTQTDPKEQQRQLKKQKNRAAAQRSRQKHTDKADALHQQHESLEKDNLALRKEIQSLQAELAWWSRTLHVHERLCPMDCASCSAPGLLGCWDQAEGLLGPGPQGQHGCREQLELFQTPGSCYPAQPLSPGPQPHDSPSLLQCPLPSLSLGPAVVAEPPVQLSPSPLLFASHTGSSLQGSSSKLSALQPSLTAQTAPPQPLELEHPTRGKLGSSPDNPSSALGLARLQSREHKPALSAATWQGLVVDPSPHPLLAFPLLSSAQVHF
For B1, the binding result in assay [7] is given as “binds”.

For the origin of these results see EP3539562A1, “IMMUNOTHERAPEUTIC PEPTIDES” (Eberhard Karls Universität Tübingen Medizinische Fakultät, priority 2018, dated 2019).
